Several values for one entry are separate records, joined by “and”; a condition that tells them apart may be missing. Identical values can stand only once. Toxic doses and inconclusive results are not listed. Square brackets hold non-standard residues; d marks the D form. Peptide text beside a SMILES is read from it. * marks the point of attachment. ξ: configuration not given here. Cbz = O=C(OCc1ccccc1)*; ξNle = CCCCC(N)C(=O)O
Tested on: BDF1 mice, B16 melanoma ip, median survival T/C
Assay: NCI In Vivo Anticancer Drug Screen. Data for tumor model B16 Melanoma (intraperitoneal) in B6D2F1 (BDF1) mice
Conditions: endpoint: median survival time, higher = longer survival
Procedure, shortened: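 Read-out: survival or tumor size, given as treated/control ratio. Controls received vehicle only; animals bore transplantable tumors.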

[1] = dose: 25.0 mg/kg/injection, schedule: Q01DX009 (ip), vehicle: saline with Tween-80
[2] = dose: 50.0 mg/kg/injection, schedule: Q01DX009 (ip), vehicle: saline with Tween-80
[3] = dose: 100.0 mg/kg/injection, schedule: Q01DX009 (ip), vehicle: saline with Tween-80
[4] = dose: 400.0 mg/kg/injection, schedule: Q01DX009 (ip), vehicle: saline with Tween-80
[5] = dose: 1.25 mg/kg/injection, schedule: Q01DX009 (ip), vehicle: saline
[6] = dose: 2.5 mg/kg/injection, schedule: Q01DX009 (ip), vehicle: saline
[7] = dose: 5.0 mg/kg/injection, schedule: Q01DX009 (ip), vehicle: saline
[8] = dose: 100.0 mg/kg/injection, schedule: Q01DX009 (ip), vehicle: Klucel (hydroxypropylcellulose) (HPC)
[9] = dose: 200.0 mg/kg/injection, schedule: Q01DX009 (ip), vehicle: Klucel (hydroxypropylcellulose) (HPC)
[10] = dose: 12.5 mg/kg/injection, schedule: Q01DX009 (ip), vehicle: saline
[11] = dose: 25.0 mg/kg/injection, schedule: Q01DX009 (ip), vehicle: saline
[12] = dose: 50.0 mg/kg/injection, schedule: Q01DX009 (ip), vehicle: saline
[13] = dose: 100.0 mg/kg/injection, schedule: Q01DX009 (ip), vehicle: saline
[14] = dose: 200.0 mg/kg/injection, schedule: Q01DX009 (ip), vehicle: saline
[15] = dose: 400.0 mg/kg/injection, schedule: Q01DX009 (ip), vehicle: saline
[16] = dose: 12.5 mg/kg/injection, schedule: Q01DX009 (ip), vehicle: Klucel (hydroxypropylcellulose) (HPC)
[17] = dose: 25.0 mg/kg/injection, schedule: Q01DX009 (ip), vehicle: Klucel (hydroxypropylcellulose) (HPC)
[18] = dose: 50.0 mg/kg/injection, schedule: Q01DX009 (ip), vehicle: Klucel (hydroxypropylcellulose) (HPC)
[19] = dose: 400.0 mg/kg/injection, schedule: Q01DX009 (ip), vehicle: Klucel (hydroxypropylcellulose) (HPC)
[20] = dose: 25.0 mg/kg/injection, schedule: Q01DX009 (ip), vehicle: carboxymethylcellulose (CMC)
[21] = dose: 50.0 mg/kg/injection, schedule: Q01DX009 (ip), vehicle: carboxymethylcellulose (CMC)
[22] = dose: 100.0 mg/kg/injection, schedule: Q01DX009 (ip), vehicle: carboxymethylcellulose (CMC)
[23] = dose: 200.0 mg/kg/injection, schedule: Q01DX009 (ip), vehicle: saline with Tween-80

With C#CC(C)OCC1CNC(=S)O1 (stereo not given) the T/C [1] was 100 % of control, the T/C [2] was 89 % of control and the T/C [3] was 97 % of control. For the same molecule, the T/C [4] was 91 % of control.
For CCCCNc1ccc(Nc2ccccc2)cc1, the T/C (dose: 25.0 mg/kg/injection, schedule: Q01DX009 (ip), vehicle: saline + alcohol) was 103 % of control and the T/C (dose: 50.0 mg/kg/injection, schedule: Q01DX009 (ip), vehicle: saline + alcohol) was 104 % of control.
For O=NN(CCCl)C(=O)NC1[C@H](O)CCC[C@@H]1O (stereo not given in full), the T/C (dose: 0.63 mg/kg/injection, schedule: Q01DX009 (ip), vehicle: saline) was 159 % of control, the T/C [5] was 208 % of control and the T/C [6] was 295 % of control. For the same molecule, the T/C [7] was 295 % of control.
With CCCCCCCCCC(=O)CCCCCC the T/C [8] was 90 % of control and the T/C [9] was 89 % of control.
For COc1ccc(S(=O)(=O)NC(=S)S)cc1, the T/C (dose: 12.5 mg/kg/injection, schedule: Q01DX009 (ip), vehicle: water) was 103 % of control, the T/C (dose: 25.0 mg/kg/injection, schedule: Q01DX009 (ip), vehicle: water) was 102 % of control and the T/C (dose: 50.0 mg/kg/injection, schedule: Q01DX009 (ip), vehicle: water) was 100 % of control. The T/C (dose: 100.0 mg/kg/injection, schedule: Q01DX009 (ip), vehicle: water) was 103 % of control.
With CC[P+](CC)(CC)c1ccccc1 the T/C (dose: 6.25 mg/kg/injection, schedule: Q01DX009 (ip), vehicle: saline) was 101 % of control, the T/C [10] was 110 % of control and the T/C [11] was 111 % of control.
For O=C1NC(O)CCN1C1OC(CO)C(O)C1O (stereo not given), the T/C [11] was 111 % of control and 124 % of control, the T/C [12] was 110 % of control and 121 % of control and the T/C [13] was 102 % of control and 106 % of control. For the same molecule, the T/C [14] was 96 % of control and 120 % of control, the T/C [15] was 106 % of control and 118 % of control and the T/C (dose: 800.0 mg/kg/injection, schedule: Q01DX009 (ip), vehicle: saline) was 105 % of control and 107 % of control.
With O=C([CH-]C(=O)C(F)(F)F)c1ccccc1.O=C([CH-]C(=O)C(F)(F)F)c1ccccc1.O=C([CH-]C(=O)C(F)(F)F)c1ccccc1.O=C([CH-]C(=O)C(F)(F)F)c1ccccc1.[Eu+3].c1ccncc1 the T/C [16] was 92 % of control and 96 % of control, the T/C [17] was 88 % of control and 97 % of control and the T/C [18] was 92 % of control and 101 % of control. The T/C [8] was 93 % of control and 98 % of control, the T/C [9] was 102 % of control and 107 % of control and the T/C [19] was 93 % of control and 98 % of control.
For S=c1[nH]c2ccccc2s1, the T/C [20] was 105 % of control, the T/C [21] was 103 % of control and the T/C [22] was 109 % of control.
In the case of CC(=O)C1=C(O)C2C3c4c[nH]c5cccc(c45)CC3C(C)(C)N2C1=O (stereo not given), the T/C (dose: 0.13 mg/kg/injection, schedule: Q01DX009 (ip), vehicle: saline) was 102 % of control, the T/C (dose: 0.25 mg/kg/injection, schedule: Q01DX009 (ip), vehicle: saline) was 106 % of control and the T/C (dose: 0.5 mg/kg/injection, schedule: Q01DX009 (ip), vehicle: saline) was 106 % of control. For the same molecule, the T/C (dose: 1.0 mg/kg/injection, schedule: Q01DX009 (ip), vehicle: saline) was 106 % of control, the T/C (dose: 2.0 mg/kg/injection, schedule: Q01DX009 (ip), vehicle: saline) was 102 % of control and the T/C (dose: 4.0 mg/kg/injection, schedule: Q01DX009 (ip), vehicle: saline) was 107 % of control. The T/C (dose: 8.0 mg/kg/injection, schedule: Q01DX009 (ip), vehicle: saline) was 111 % of control.
For COC(=O)[C@@H]1[C@@H](O)[C@H](OC(=O)c2cc(OC)c(OC)c(OC)c2)C[C@@H]2CN3CCc4c([nH]c5ccccc45)[C@H]3C[C@@H]21, the T/C (dose: 1.5 mg/kg/injection, schedule: Q01DX009 (ip), vehicle: Klucel (hydroxypropylcellulose) (HPC)) was 107 % of control, the T/C (dose: 3.0 mg/kg/injection, schedule: Q01DX009 (ip), vehicle: Klucel (hydroxypropylcellulose) (HPC)) was 98 % of control and the T/C (dose: 6.0 mg/kg/injection, schedule: Q01DX009 (ip), vehicle: Klucel (hydroxypropylcellulose) (HPC)) was 97 % of control.
With O=C(O)CCC1CCC(=O)OC1=O (stereo not given) the T/C [13] was 112 % of control, the T/C [14] was 113 % of control and the T/C [15] was 113 % of control.
CC(=O)CC(=O)NCCN1CCN=C1C was tested, and the T/C [13] was 109 % of control, the T/C [14] was 116 % of control and the T/C [15] was 110 % of control.
Cc1ccc([N+](=O)[O-])c(C)c1 was tested, and the T/C [8] was 94 % of control, the T/C [9] was 102 % of control and the T/C [19] was 94 % of control.
For CC(=O)NS(=O)(=O)c1ccc(NC(=O)c2ccccc2C(=O)O)cc1, the T/C [18] was 98 % of control, the T/C [8] was 96 % of control and the T/C [9] was 93 % of control.
For CC(C)(C)OC(=O)NC(CCCCNC(=O)OCc1ccccc1)C(=O)O (stereo not given), the T/C [2] was 107 % of control and the T/C [3] was 90 % of control.
Cc1ccc(C)c(NC(=O)Nc2ccccc2Cl)c1 was tested, and the T/C (dose: 25.0 mg/kg/injection, schedule: Q01DX009 (ip), vehicle: gum acacia) was 86 % of control, the T/C (dose: 50.0 mg/kg/injection, schedule: Q01DX009 (ip), vehicle: gum acacia) was 90 % of control and the T/C (dose: 100.0 mg/kg/injection, schedule: Q01DX009 (ip), vehicle: gum acacia) was 88 % of control. For the same molecule, the T/C (dose: 100.0 mg/kg/injection, schedule: Q04DX003 (ip), vehicle: gum acacia) was 90 % of control.
In the case of CCC(=O)Nc1cc(C(F)(F)F)ccc1Cl, the T/C [1] was 100 % of control, the T/C [2] was 101 % of control and 119 % of control and the T/C [3] was 96 % of control and 105 % of control. The T/C [23] was 105 % of control.
In the case of C=CCN(CC=C)C(=O)CCN1CC1, the T/C [5] was 100 % of control, the T/C (dose: 1.25 mg/kg/injection, schedule: Q04DX003 (ip), vehicle: saline) was 102 % of control and the T/C [6] was 100 % of control. For the same molecule, the T/C (dose: 2.5 mg/kg/injection, schedule: Q04DX003 (ip), vehicle: saline) was 100 % of control, the T/C [7] was 100 % of control and the T/C (dose: 5.0 mg/kg/injection, schedule: Q04DX003 (ip), vehicle: saline) was 105 % of control.
CCNC(C)(C)C(SSSC(c1cccs1)C(C)(C)NCC)c1cccs1 (stereo not given) was tested, and the T/C [17] was 100 % of control and the T/C [18] was 94 % of control.
Cn1c(N)c(N=O)c(=O)n(C)c1=O was tested, and the T/C (dose: 90.0 mg/kg/injection, schedule: Q01DX009 (ip), vehicle: saline with Tween-80) was 100 % of control, the T/C (dose: 180.0 mg/kg/injection, schedule: Q01DX009 (ip), vehicle: saline with Tween-80) was 90 % of control and the T/C (dose: 360.0 mg/kg/injection, schedule: Q01DX009 (ip), vehicle: saline with Tween-80) was 100 % of control.
For OCC1(CO)COC2(CCCCC2)N1, the T/C [10] was 110 % of control, the T/C [11] was 116 % of control and the T/C [12] was 109 % of control. The T/C [13] was 103 % of control, the T/C [14] was 112 % of control and the T/C [15] was 108 % of control.
In the case of O=C(O)[C@@H]1[C@H]2C[C@H]3c4[nH]c5ccccc5c4CCN3C[C@@H]2CC[C@@H]1O, the T/C [17] was 89 % of control, the T/C [18] was 88 % of control and the T/C [8] was 97 % of control. For the same molecule, the T/C [9] was 92 % of control.
In the case of CCN(CC)C(C(=O)Nc1ccccc1)C(=O)Nc1ccccc1, the T/C [3] was 100 % of control, the T/C [23] was 90 % of control and the T/C [4] was 95 % of control.
With CCC(CCCN(CC)CCc1ccccc1)OC(=O)c1cc(OC)c(OC)c(OC)c1 (stereo not given) the T/C (dose: 4.68 mg/kg/injection, schedule: Q01DX009 (ip), vehicle: saline) was 104 % of control, the T/C (dose: 9.37 mg/kg/injection, schedule: Q01DX009 (ip), vehicle: saline) was 108 % of control and the T/C (dose: 18.75 mg/kg/injection, schedule: Q01DX009 (ip), vehicle: saline) was 103 % of control. For the same molecule, the T/C (dose: 37.5 mg/kg/injection, schedule: Q01DX009 (ip), vehicle: saline) was 100 % of control and the T/C (dose: 75.0 mg/kg/injection, schedule: Q01DX009 (ip), vehicle: saline) was 91 % of control.
CCCCC(NC(=O)OCc1ccccc1)C(=O)NCC(=O)OC (stereo not given) (Cbz-[ξNle]-Gly-OMe) was tested, and the T/C [2] was 96 % of control, the T/C [3] was 115 % of control and the T/C [23] was 112 % of control. For the same molecule, the T/C [4] was 92 % of control.
With CN(C)C(=O)C1(c2ccc(Cl)cc2)CCN(CCCC(=O)c2ccc(F)cc2)CC1 the T/C [16] was 94 % of control, the T/C [17] was 94 % of control and the T/C [18] was 97 % of control.
With CCCCCCCCCCCCCCCCc1ccc(CCCC(=O)O)cc1 the T/C [20] was 101 % of control, the T/C [21] was 103 % of control and the T/C [22] was 95 % of control.

From PubChem BioAssay AID192 (DTP/NCI, 2004)
